Consider nine compounds from ChEMBL document CHEMBL2413050, “Design and synthesis of conformationally restricted capsaicin analogues based in the 1, 3, 4-thiadiazole heterocycle reveal a novel family of transient receptor potential vanilloid 1 (TRPV1) antagonists” (Eur J Med Chem, 2013).

The target in assay [1] is T1, Transient receptor potential cation channel subfamily V member 1 (Rattus norvegicus, UniProt O35433). The experiment in a line: Antagonist activity at rat TRPV1 receptor expressed in HEK293T cells assessed as inhibition of capsaicin-induced calcium flux after 30 mins by Fluo-4AM based fluorescence assay. In kind it is cell-based, HEK-293T.
For assay [2], the target named is Transient receptor potential cation channel subfamily V member 1 (Rattus norvegicus) (UniProt O35433). The experiment in a line: Antagonist activity at rat TRPV1 receptor expressed in HEK293T cells assessed as inhibition of capsaicin-induced calcium flux at 1 uM after 30 mins by Fluo-4AM based fluorescence assay relative to control. In kind it is cell-based. Conditions: HEK-293T.

The target is the same in assay [3]. The experiment in a line: Antagonist activity at rat TRPV1 receptor expressed in HEK293T cells assessed as inhibition of temperature-induced calcium flux at 1 uM after 30 mins by Fluo-4AM based fluorescence assay relative to control. In kind it is cell-based. The following applies: HEK-293T.
Assay [4] addresses T2, Uncharacterized protein (Gallus gallus) (UniProt F1NJH8).
T2 sequence (whole entry): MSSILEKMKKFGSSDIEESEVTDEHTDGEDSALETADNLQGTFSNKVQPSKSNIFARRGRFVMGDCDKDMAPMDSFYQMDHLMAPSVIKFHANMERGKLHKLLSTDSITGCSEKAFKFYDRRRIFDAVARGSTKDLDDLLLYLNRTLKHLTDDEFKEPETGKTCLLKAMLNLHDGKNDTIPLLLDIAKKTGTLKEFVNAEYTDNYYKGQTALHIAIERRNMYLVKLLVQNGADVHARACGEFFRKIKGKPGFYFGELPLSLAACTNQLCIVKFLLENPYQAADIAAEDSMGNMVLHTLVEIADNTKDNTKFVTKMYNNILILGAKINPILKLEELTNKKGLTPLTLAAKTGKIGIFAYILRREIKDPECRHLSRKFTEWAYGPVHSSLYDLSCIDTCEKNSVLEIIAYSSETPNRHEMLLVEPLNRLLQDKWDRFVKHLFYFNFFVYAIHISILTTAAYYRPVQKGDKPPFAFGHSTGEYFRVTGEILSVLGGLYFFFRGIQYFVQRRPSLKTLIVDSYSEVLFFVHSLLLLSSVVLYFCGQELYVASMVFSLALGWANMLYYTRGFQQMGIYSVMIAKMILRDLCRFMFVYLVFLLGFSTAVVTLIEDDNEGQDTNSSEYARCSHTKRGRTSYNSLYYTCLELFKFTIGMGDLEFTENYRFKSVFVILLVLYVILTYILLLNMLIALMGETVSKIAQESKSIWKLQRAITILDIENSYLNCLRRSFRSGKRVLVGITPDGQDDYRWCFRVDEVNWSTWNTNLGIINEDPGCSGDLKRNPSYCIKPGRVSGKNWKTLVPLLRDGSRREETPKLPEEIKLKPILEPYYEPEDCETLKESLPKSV
Briefly: Antagonist activity at chicken TRPV1 receptor assessed as inhibition of capsaicin-induced calcium flux at 1 uM after 30 mins by cell based Fluo-4AM fluorescence assay relative to control.

For assay [5], the target named is T1, Transient receptor potential cation channel subfamily V member 1. The experiment in a line: Antagonist activity at rat TRPV1 receptor expressed in HEK293T cells assessed as inhibition of temperature-induced calcium flux after 30 mins by Fluo-4AM based fluorescence assay. Type of assay: cell-based, HEK-293T.

T1 sequence (O35433 whole entry): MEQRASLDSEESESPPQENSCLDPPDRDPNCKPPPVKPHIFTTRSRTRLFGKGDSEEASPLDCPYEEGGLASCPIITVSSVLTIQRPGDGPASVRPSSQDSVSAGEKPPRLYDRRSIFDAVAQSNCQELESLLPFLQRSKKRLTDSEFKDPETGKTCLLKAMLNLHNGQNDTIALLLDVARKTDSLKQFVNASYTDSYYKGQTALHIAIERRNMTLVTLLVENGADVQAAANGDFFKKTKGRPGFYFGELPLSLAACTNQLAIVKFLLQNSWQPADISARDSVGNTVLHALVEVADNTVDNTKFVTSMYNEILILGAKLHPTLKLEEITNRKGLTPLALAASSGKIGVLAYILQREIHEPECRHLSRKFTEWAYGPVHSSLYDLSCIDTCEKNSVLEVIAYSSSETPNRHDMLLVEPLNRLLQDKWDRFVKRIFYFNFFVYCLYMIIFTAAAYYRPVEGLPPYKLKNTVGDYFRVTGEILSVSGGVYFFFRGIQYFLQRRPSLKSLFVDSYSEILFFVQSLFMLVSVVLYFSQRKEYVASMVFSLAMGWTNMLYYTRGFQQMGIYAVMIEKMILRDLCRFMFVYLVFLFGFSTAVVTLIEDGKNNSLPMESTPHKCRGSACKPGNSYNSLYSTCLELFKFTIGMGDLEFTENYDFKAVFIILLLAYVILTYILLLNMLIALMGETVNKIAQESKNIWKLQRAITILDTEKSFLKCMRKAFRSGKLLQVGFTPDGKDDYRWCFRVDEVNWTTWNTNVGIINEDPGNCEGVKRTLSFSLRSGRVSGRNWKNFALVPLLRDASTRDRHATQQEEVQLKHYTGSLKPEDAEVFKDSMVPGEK
Transient receptor potential cation channel subfamily V member 1 (Rattus norvegicus), sequence (O35433 whole entry): as above

With `CCCCCCC(=O)Nc1nnc(-c2cc(I)c(O)c(OC)c2)s1`, the IC50 in assay [1] was found to be 6.07 nM. In addition, the inhibition turned out to be 90.8% in assay [2] and 92.4% in assay [3].
With `CCCCCCCCC(=O)Nc1nnc(-c2ccc(O)c(OC)c2)s1`, the inhibition in assay [4] was determined as 79.4%; in assay [2], 98.8%; in assay [3], 92.9%. Moreover, the IC50 in assay [1] is 0.18 nM; in assay [5] it was 0.05 nM.
`CCCCCCCC(=O)Nc1nnc(-c2cc(I)c(O)c(OC)c2)s1`: the results for the inhibition in assay [4], in assay [2] and in assay [3] were 85.4%, 94.5% and 93.7%, respectively. The values for the IC50 in assay [1] and in assay [5] were 0.33 nM and 1.09 nM, respectively.
As to `CCCCCCCC(=O)Nc1nnc(-c2ccc(O)c(OC)c2)s1`, the inhibition in assay [4] worked out at 81.2%; in assay [2] it was 97.7%; in assay [3] it was 89.8%. In assay [1], the IC50 amounted to 0.15 nM.
With `CCCCCCCCC(=O)Nc1nnc(-c2cc(I)c(O)c(OC)c2)s1`, the inhibition came to 80.1% in assay [4], 96.9% in assay [2] and 91.9% in assay [3]. Also, the figures for the IC50 in assay [1] and in assay [5] were 0.34 nM and 0.15 nM, respectively.
Take `CCCCCC(=O)Nc1nnc(-c2cc(I)c(O)c(OC)c2)s1`: the inhibition was found to be 95.3% in assay [4], 96.6% in assay [2] and 94.3% in assay [3]. Also, the half-inhibitory concentration (IC50) in assay [1] worked out at 1.47 nM; in assay [5], 0.29 nM.
On to `CC(C)(C)c1ccc(NC(=O)N2CCN(c3ncccc3Cl)CC2)cc1`, for which the inhibition in assay [4] is 8.97%; in assay [2], 92.7%; in assay [3], 66.4%.
Turning to `CCCCCC(=O)Nc1nnc(-c2ccc(O)c(OC)c2)s1`, the inhibition in assay [4] worked out at 92.6%; in assay [2], 95.5%; in assay [3] it was 88.8%. Further, in assay [1], the concentration for half-maximal inhibition (IC50) came to 2.61 nM.
Turning to `CCCCCCC(=O)Nc1nnc(-c2ccc(O)c(OC)c2)s1`, in assay [1], the IC50 stood at 0.77 nM. Moreover, the inhibition in assay [2] amounted to 95.3%; in assay [3], 94%.
